Biological target: T1, new ADP-ribosyl cyclase (ADPRC) of SEQ ID NO 1 (Mus musculus, UniProt P14094)
T1 construct: FLAG (N); made in house; host or cells: HEK293 cells or MES13 cells (transient transfection)
Test: Inhibition of NAD glycohydrolase (NADase) activity of new ADPRC
Format: biochemical
Conditions: as compared to the control group; ε-NAD substrate, 37° C. 1 hour; inhibitor concentration not given; FIG. 5
Method: In order to investigate the ADP-ribosyl cyclase (ADPRC) activity of SEQ ID NO 1, a FLAG-ADPRC plasmid was prepared by ligating a cDNA sequence encoding ADPRC into a FLAG-CMV-2 vector and the overexpression of new ADPRC was induced by treating HEK293 cells or MES13 cells using a transfection reagent. The overexpressed new ADPRC was lysed with a lysis buffer. 45 μL of the lysed sample was treated with 5 μL of 2 mM ε-NAD (nicotinamide 1,N6-ethenoadenine dinucleotide) and incubated at 37° C. for 1 hour. Then, the enzyme-substrate reaction was stopped by treating with 50 μL of 10% trichloroacetic acid. After centrifuging for 10 minutes and adding 80 μL of the supernatant to 720 μL of 0.1 M sodium phosphate buffer, absorbance was measured at 297 nm (excitation) and 410 nm (emission) with a fluorescence spectrometer.
In order to find an inhibitor which inhibits the activation of new ADP-ribosyl cyclase (ADPRC) of SEQ ID NO 1, 5 μL of each of 4,4′-dihydroxyazobenzene (4-DHAB, TCI (Japan)), 2,2′-dihydroxyazobenzene (2-DAB, Sigma-Aldrich (USA)), 2-(3,4-dihydroxyphenyl)-3,5,7-trihydroxychromen-4-one (Quercetin, Sigma-Aldrich (USA)) and San4825 (synthesized by Kannt A et al. [Kannt A, Sicka K, Kroll K, Kadereit D, Gogelein H. Naunyn. Schmiedebergs. Arch. Pharmacol. 385: 717-727, 2012], China) and 2-(1,3-benzoxazol-2-ylamino)-1-methylquinazoline-4(1H)-one (2-BMQ) and 1,4-dicaffeoylquinic acid (1,4-DCQA, Biopurify (China), hereinafter DCQA), which were newly found through screening, was reacted with 40 μL of new ADPRC in iced water for 15 minutes. Then, reaction was conducted at 37° C. for 1 hour after treating with 5 μL of 2 mM ε-NAD (nicotinamide 1,N6-ethenoadenine dinucleotide). Then, the enzyme-substrate reaction was stopped by treating with 50 μL of 10% trichloroacetic acid. After centrifuging for 10 minutes and adding 80 μL of the supernatant to 720 μL of 0.1 M sodium phosphate buffer, absorbance was measured at 297 nm (excitation) and 410 nm (emission) using a fluorescence spectrometer.

Compound	NAD glycohydrolase (NADase) activity inhibited [%]
Cn1c(Nc2nc3ccccc3o2)nc(=O)c2ccccc21 [2-BMQ, 2-(1,3-benzoxazol-2-ylamino)-1-methylquinazoline-4(1H)-one]	36.49
Oc1ccc(N=Nc2ccc(O)cc2)cc1 [4-DHAB, 4,4′-dihydroxyazobenzene]	42.40
